Patent publication US10781204B2, “TYK2 inhibitors and uses thereof” (Nimbus Lakshmi, Inc., priority 2015, dated 2020)

Tests used:
[1] = system: Tyk2-pSTAT4 (IL-12 induced pSTAT4); assay: IL-12 induced pSTAT4 in human PBMC; format: cell-based; conditions: Homo sapiens, PBMC, 0.5 h, 1.7 ng/mL IL-12, 30 minutes
Procedure: Human PBMC are isolated from buffy coat and are stored frozen for assays as needed. Cells for assay are thawed and resuspended in complete media containing serum, then cells are diluted to 1.67 E6 cells/ml so that 120 ul per well is 200,000 cells. 15 ul of compound or DMSO is added to the well at the desired concentrations and incubated at 1 hr at 37 C. 15 ul of stimulus (final concentration of 1.7 ng/mL IL-12) is added for 30 minutes prior to pSTAT4 and total STAT4 analysis using cell lysates prepared and analyzed by MSD reagents as per manufacturer protocol. The final DMSO concentration of compound in the assay is 0.1%.

[2] = molecular target: JAK2 (Homo sapiens (Human), UniProt O60674); assay: JAK2 radioactive kinase assay; format: biochemical; conditions: ATP 10 μM
Procedure: (§1) Peptide substrate, [KKSRGDYMTMQIG], (20 μM) is prepared in reaction buffer (20 mM Hepes pH 7.5, 10 mM MgCl2, 1 mM EGTA, 0.02% Brij35, 0.02 mg/mL BSA, 0.1 mM […], 2 mM DTT, 1% DMSO. TYK2 (Invitrogen) kinase is added, followed by compounds in DMSO. ^33PATP is added to initiate the reaction with ATP at 10 μM. Kinase reaction is incubated for 120 min at room temp and reactions are spotted onto P81 ion exchange paper (Whatman #3698-915), and then washed extensively in 0.75% phosphoric acid, prior to reading the radioactivity counts. For JAK2 (Invitrogen) kinase assay the peptide substrate poly[Glu:Tyr] (4:1), 0.2 mg/ml is used, in the reaction carried out the same as for TYK2.

[3] = molecular target: TYK2 (Homo sapiens (Human), UniProt P29597); assay: Tyk2 radioactive kinase assay; format: biochemical; conditions: ATP 10 μM
Procedure: as §1

TYK2, sequence (P29597 whole entry): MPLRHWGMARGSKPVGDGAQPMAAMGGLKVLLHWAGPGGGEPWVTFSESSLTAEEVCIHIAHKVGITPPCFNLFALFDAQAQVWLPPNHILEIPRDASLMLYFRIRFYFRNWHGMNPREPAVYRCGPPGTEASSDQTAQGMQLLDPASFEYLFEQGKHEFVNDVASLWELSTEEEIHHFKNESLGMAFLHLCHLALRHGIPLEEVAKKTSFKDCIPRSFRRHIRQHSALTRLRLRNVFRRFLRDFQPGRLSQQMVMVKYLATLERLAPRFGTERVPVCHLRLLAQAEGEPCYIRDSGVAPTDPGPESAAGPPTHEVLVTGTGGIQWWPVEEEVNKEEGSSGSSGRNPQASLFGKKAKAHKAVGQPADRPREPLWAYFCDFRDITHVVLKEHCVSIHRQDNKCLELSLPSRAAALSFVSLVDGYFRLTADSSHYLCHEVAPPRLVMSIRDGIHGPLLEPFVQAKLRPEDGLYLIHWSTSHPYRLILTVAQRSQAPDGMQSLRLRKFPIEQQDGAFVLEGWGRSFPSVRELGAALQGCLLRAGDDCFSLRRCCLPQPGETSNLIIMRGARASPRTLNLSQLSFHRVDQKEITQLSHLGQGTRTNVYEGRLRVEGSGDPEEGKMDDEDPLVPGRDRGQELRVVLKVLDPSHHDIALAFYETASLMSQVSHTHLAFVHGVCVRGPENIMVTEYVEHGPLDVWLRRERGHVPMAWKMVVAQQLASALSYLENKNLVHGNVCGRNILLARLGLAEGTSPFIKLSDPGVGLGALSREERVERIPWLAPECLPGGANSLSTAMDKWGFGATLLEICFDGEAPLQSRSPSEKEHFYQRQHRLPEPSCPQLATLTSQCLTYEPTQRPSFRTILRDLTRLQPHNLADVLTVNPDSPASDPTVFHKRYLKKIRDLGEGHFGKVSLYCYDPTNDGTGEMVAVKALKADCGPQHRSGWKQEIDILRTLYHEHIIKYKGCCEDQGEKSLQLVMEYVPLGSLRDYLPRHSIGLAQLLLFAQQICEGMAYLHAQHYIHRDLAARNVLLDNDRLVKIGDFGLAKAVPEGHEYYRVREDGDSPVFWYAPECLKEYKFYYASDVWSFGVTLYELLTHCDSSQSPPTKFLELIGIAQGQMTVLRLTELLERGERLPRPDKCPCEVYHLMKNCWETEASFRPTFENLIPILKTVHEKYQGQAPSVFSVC
JAK2, sequence (O60674 whole entry): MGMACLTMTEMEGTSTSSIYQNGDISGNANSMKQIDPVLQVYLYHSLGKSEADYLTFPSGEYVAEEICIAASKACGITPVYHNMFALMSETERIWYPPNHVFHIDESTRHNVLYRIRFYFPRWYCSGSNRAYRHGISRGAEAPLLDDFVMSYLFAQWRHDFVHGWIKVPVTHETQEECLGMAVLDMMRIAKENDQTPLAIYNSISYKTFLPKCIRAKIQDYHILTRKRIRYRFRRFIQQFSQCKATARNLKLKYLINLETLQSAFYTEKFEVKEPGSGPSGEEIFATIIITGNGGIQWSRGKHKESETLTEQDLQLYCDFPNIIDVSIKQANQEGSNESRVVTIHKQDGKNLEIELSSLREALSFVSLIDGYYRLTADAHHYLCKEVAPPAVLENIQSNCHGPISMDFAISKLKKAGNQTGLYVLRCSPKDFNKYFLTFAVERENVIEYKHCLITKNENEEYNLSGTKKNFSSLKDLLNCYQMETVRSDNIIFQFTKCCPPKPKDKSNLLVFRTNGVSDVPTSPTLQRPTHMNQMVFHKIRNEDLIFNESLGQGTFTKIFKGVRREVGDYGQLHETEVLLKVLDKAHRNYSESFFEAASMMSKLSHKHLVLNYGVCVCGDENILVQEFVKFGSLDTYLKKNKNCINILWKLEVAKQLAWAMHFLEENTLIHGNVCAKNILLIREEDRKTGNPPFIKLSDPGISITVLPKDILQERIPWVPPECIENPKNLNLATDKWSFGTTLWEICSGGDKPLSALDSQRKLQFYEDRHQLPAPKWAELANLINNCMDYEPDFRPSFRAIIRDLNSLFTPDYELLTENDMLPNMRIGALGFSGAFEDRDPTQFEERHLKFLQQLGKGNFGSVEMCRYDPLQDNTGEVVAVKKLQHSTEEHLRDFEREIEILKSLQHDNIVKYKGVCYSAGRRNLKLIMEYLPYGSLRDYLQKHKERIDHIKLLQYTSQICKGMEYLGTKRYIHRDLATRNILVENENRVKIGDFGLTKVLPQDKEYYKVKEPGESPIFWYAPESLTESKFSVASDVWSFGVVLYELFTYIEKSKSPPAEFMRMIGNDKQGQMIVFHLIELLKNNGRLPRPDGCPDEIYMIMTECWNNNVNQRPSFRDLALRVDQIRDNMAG

| Compound | EC50 [1] [nM] | Ki [2] [nM] | Ki [3] [nM] |
| --- | --- | --- | --- |
| N#Cc1cccc(F)c1-c1cc(-n2ccc(N3CCC[C@@H](C(=O)N4CCCC4)C3)n2)c2c(n1)CNC2=O [I-167, (R)-3-fluoro-2-(5-oxo-4-(3-(3-(pyrrolidine-1-carbonyl)piperidin-1-yl)-1H-pyrazol-1-yl)-6,7-dihydro-5H-pyrrolo[3,4-b]pyridin-2-yl)benzonitrile] | 100 to 2000 | 0.1 to 10 | 0.1 to 10 |
| N#Cc1cccc(F)c1-c1cc(-n2ccc(N3CC[C@@H](C#N)C3)n2)c2c(n1)CNC2=O [I-127, (R)-1-(1-(2-(2-cyano-6-fluorophenyl)-5-oxo-6,7-dihydro-5H-pyrrolo[3,4-b]pyridin-4-yl)-1H-pyrazol-3-yl)pyrrolidine-3-carbonitrile] | 30 to 100 | 10 to 100 | 0.1 to 10 |
| N#Cc1cccc(F)c1-c1cc(-n2ccc(N3C[C@@H]4OCCO[C@@H]4C3)n2)c2c(n1)CNC2=O [I-169, 3-fluoro-2-(4-(3-((4aR,7aS)-hexahydro-6H-[1,4]dioxino[2,3-c]pyrrol-6-yl)-1H-pyrazol-1-yl)-5-oxo-6,7-dihydro-5H-pyrrolo[3,4-b]pyridin-2-yl)benzonitrile] | 30 to 100 | 0.1 to 10 | 0.1 to 10 |
| N#Cc1cccc(F)c1-c1cc(-n2ccc(N3CC[C@@H](O)[C@@H](O)C3)n2)c2c(n1)CNC2=O [I-105, 2-(4-(3-((3S,4R)-3,4-dihydroxypiperidin-1-yl)-1H-pyrazol-1-yl)-5-oxo-6,7-dihydro-5H-pyrrolo[3,4-b]pyridin-2-yl)-3-fluorobenzonitrile] | 100 to 2000 | 10 to 100 | 0.1 to 10 |
| N#Cc1cccc(F)c1-c1cc(-n2ccc(N3CC[C@]4(C3)OC[C@@H](O)CO4)n2)c2c(n1)CNC2=O [I-222, 3-fluoro-2-(4-(3-((5s,8s)-8-hydroxy-6,10-dioxa-2-azaspiro[4.5]decan-2-yl)-1H-pyrazol-1-yl)-5-oxo-6,7-dihydro-5H-pyrrolo[3,4-b]pyridin-2-yl)benzonitrile] | 100 to 2000 | 10 to 100 | 0.1 to 10 |
| CO[C@@H]1CN(c2ccn(-c3cc(-c4c(F)cccc4C#N)nc4c3C(=O)NC4)n2)C[C@@H]1O [I-154, 3-fluoro-2-(4-(3-((3S,4R)-3-hydroxy-4-methoxypyrrolidin-1-yl)-1H-pyrazol-1-yl)-5-oxo-6,7-dihydro-5H-pyrrolo[3,4-b]pyridin-2-yl)benzonitrile] | 30 to 100 |  | 0.1 to 10 |
| N#Cc1cccc(F)c1-c1cc(-n2ccc(N3CCC(F)C(O)C3)n2)c2c(n1)CNC2=O (centres unmarked) [I-160, 3-fluoro-2-(4-(3-(4-fluoro-3-hydroxypiperidin-1-yl)-1H-pyrazol-1-yl)-5-oxo-6,7-dihydro-5H-pyrrolo[3,4-b]pyridin-2-yl)benzonitrile] | 30 to 100 | 0.1 to 10 | 0.009 to 0.1 |
| C[C@@]1(O)CN(c2ccn(-c3cc(-c4c(F)cccc4C#N)nc4c3C(=O)NC4)n2)CC[C@H]1O [I-182, 2-(4-(3-((3R,4R)-3,4-dihydroxy-3-methylpiperidin-1-yl)-1H-pyrazol-1-yl)-5-oxo-6,7-dihydro-5H-pyrrolo[3,4-b]pyridin-2-yl)-3-fluorobenzonitrile] | 30 to 100 | 0.1 to 10 | 0.1 to 10 |
| N#Cc1cccc(F)c1-c1cc(-n2ccc(N3CCCC(CO)C3)n2)c2c(n1)CNC2=O (centres unmarked) [I-86, 3-fluoro-2-(4-(3-(3-(hydroxymethyl)piperidin-1-yl)-1H-pyrazol-1-yl)-5-oxo-6,7-dihydro-5H-pyrrolo[3,4-b]pyridin-2-yl)benzonitrile] | 100 to 2000 | 10 to 100 | 0.1 to 10 |
| CC1(C)C(O)CCN1c1ccn(-c2cc(-c3c(F)cccc3C#N)nc3c2C(=O)NC3)n1 (centres unmarked) [I-187, 3-fluoro-2-(4-(3-(3-hydroxy-2,2-dimethylpyrrolidin-1-yl)-1H-pyrazol-1-yl)-5-oxo-6,7-dihydro-5H-pyrrolo[3,4-b]pyridin-2-yl)benzonitrile] | 100 to 2000 | 0.1 to 10 | 0.009 to 0.1 |
| N#Cc1cccc(F)c1-c1cc(-n2cc3c(n2)CCCN3)c2c(n1)CNC2=O [I-77, 3-fluoro-2-(5-oxo-4-(4,5,6,7-tetrahydro-2H-pyrazolo[4,3-b]pyri-din-2-yl)-6,7-dihydro-5H-pyrrolo[3,4-b]pyridin-2-yl)benzonitrile] | 30 to 100 | 10 to 100 | 0.1 to 10 |
| N#Cc1cccc(F)c1-c1cc(-n2ccc(N3CCOC[C@H](O)C3)n2)c2c(n1)CNC2=O [I-132, (R)-3-fluoro-2-(4-(3-(6-hydroxy-1,4-oxazepan-4-yl)-1H-pyrazol-1-yl)-5-oxo-6,7-dihydro-5H-pyrrolo[3,4-b]pyridin-2-yl)benzonitrile] | 100 to 2000 | 10 to 100 | 0.1 to 10 |
| N#Cc1cccc(F)c1-c1cc(-n2ccc(N3CCNC(=O)C3)n2)c2c(n1)CNC2=O [I-175, 3-fluoro-2-(5-oxo-4-(3-(3-oxopiperazin-1-yl)-1H-pyrazol-1-yl)-6,7-dihydro-5H-pyrrolo[3,4-b]pyridin-2-yl)benzonitrile] | 100 to 2000 | 100 to 1000 | 0.1 to 10 |
| N#Cc1cccc(F)c1-c1cc(-n2ccc(N3CCC[C@@H](N)C3)n2)c2c(n1)CNC2=O [I-73, (R)-2-(4-(3-(3-aminopiperidin-1-yl)-1H-pyrazol-1-yl)-5-oxo-6,7-dihydro-5H-pyrrolo[3,4-b]pyridin-2-yl)-3-fluorobenzonitrile] | 100 to 2000 | 0.1 to 10 | 0.1 to 10 |
| CS(=O)(=O)N[C@@H]1CCN(c2ccn(-c3cc(-c4c(F)cccc4C#N)nc4c3C(=O)NC4)n2)C1 [I-134, (R)-N-(1-(1-(2-(2-cyano-6-fluorophenyl)-5-oxo-6,7-dihydro-5H-pyrrolo[3,4-b]pyridin-4-yl)-1H-pyrazol-3-yl)pyrrolidin-3-yl)methanesulfonamide] | 100 to 2000 | 0.1 to 10 | 0.1 to 10 |
| N#Cc1cccc(F)c1-c1cc(-n2ccc(N3CCCNC(=O)C3)n2)c2c(n1)CNC2=O [I-140, 3-fluoro-2-(5-oxo-4-(3-(3-oxo-1,4-diazepan-1-yl)-1H-pyrazol-1-yl)-6,7-dihydro-5H-pyrrolo[3,4-b]pyridin-2-yl)benzonitrile] | 100 to 2000 | 0.1 to 10 | 0.1 to 10 |
| N#Cc1cccc(F)c1-c1cc(-n2ccc(N3CC[C@H](C#N)C3)n2)c2c(n1)CNC2=O [I-128, (S)-1-(1-(2-(2-cyano-6-fluorophenyl)-5-oxo-6,7-dihydro-5H-pyrrolo[3,4-b]pyridin-4-yl)-1H-pyrazol-3-yl)pyrrolidine-3-carbonitrile] | 30 to 100 | 10 to 100 | 0.1 to 10 |
| N#Cc1cccc(F)c1-c1cc(-n2ccc(N3CC[C@@](O)(C(=O)N4CCCC4)C3)n2)c2c(n1)CNC2=O [I-197, (S)-3-fluoro-2-(4-(3-(3-hydroxy-3-(pyrrolidine-1-carbonyl)-pyrrolidin-1-yl)-1H-pyrazol-1-yl)-5-oxo-6,7-dihydro-5H-pyrrolo[3,4-b]pyridin-2-yl)benzonitrile] | 100 to 2000 | 10 to 100 | 0.1 to 10 |
| C[C@]1(O)CCN(c2ccn(-c3cc(-c4c(F)cccc4C#N)nc4c3C(=O)NC4)n2)C1 [I-93, (S)-3-fluoro-2-(4-(3-(3-hydroxy-3-methylpyrrolidin-1-yl)-1H-pyrazol-1-yl)-5-oxo-6,7-dihydro-5H-pyrrolo[3,4-b]pyridin-2-yl)benzonitrile] | 30 to 100 | 10 to 100 | 0.1 to 10 |
| N#Cc1cccc(F)c1-c1cc(-n2ccc(N3CCC[C@H](O)[C@H](O)C3)n2)c2c(n1)CNC2=O [I-115, 2-(4-(3-((3R,4S)-3,4-dihydroxyazepan-1-yl)-1H-pyrazol-1-yl)-5-oxo-6,7-dihydro-5H-pyrrolo[3,4-b]pyridin-2-yl)-3-fluorobenzonitrile] |  | 10 to 100 | 0.1 to 10 |
| [2H]C1([2H])N(c2ccn(-c3cc(-c4c(F)cccc4C#N)nc4c3C(=O)NC4)n2)C([2H])([2H])C([2H])(O)C1([2H])[2H] (centres unmarked) [I-194, 3-fluoro-2-(4-(3-(3-hydroxypyrrolidin-1-yl-2,2,3,4,4,5,5-d7)-1H-pyrazol-1-yl)-5-oxo-6,7-dihydro-5H-pyrrolo[3,4-b]pyridin-2-yl)benzonitrile] | 100 to 2000 | 0.1 to 10 | 0.1 to 10 |
| CN1CCN(c2ccn(-c3cc(-c4c(F)cccc4F)nc4c3C(=O)NC4)n2)CC1 [I-5, 2-(2,6-difluorophenyl)-4-(3-(4-methylpiperazin-1-yl)-1H-pyrazol-1-yl)-6,7-dihydro-5H-pyrrolo[3,4-b]pyridin-5-one] |  | 100 to 1000 | 0.1 to 10 |
| COCCOC1CN(c2ccn(-c3cc(-c4c(F)cccc4C#N)nc4c3C(=O)NC4)n2)C1 [I-82, 3-fluoro-2-(4-(3-(3-(2-methoxyethoxy)azetidin-1-yl)-1H-pyrazol-1-yl)-5-oxo-6,7-dihydro-5H-pyrrolo[3,4-b]pyridin-2-yl)benzonitrile] |  | ≥ 1000 | ≥ 1000 |
| CC(C)n1cc(-c2cc(-c3c(F)cccc3C#N)nc3c2C(=O)NC3)cn1 [I-61, 3-fluoro-2-(4-(1-isopropyl-1H-pyrazol-4-yl)-5-oxo-6,7-dihydro-5H-pyrrolo[3,4-b]pyridin-2-yl)benzonitrile] | 100 to 2000 | 10 to 100 | 0.1 to 10 |
